In patent publication US7514404B2, “PNA-neamine conjugates and methods for producing and using the same” (University of Medicine & Dentistry of New Jersey, priority 2004, dated 2009):

System: pseudotyped HIV-1 virions carrying the firefly luciferase reporter gene
Assay: Luciferase activity in CEM cells infected with pseudotyped HIV-1 virions
Type: cell-based
Settings: concentrations greater than 5 μM in the culture medium
Protocol: The ability of a TAR-specific PNA-neamine conjugate to block HIV-1 production when supplemented in the culture medium was also examined. Lymphocyte CEM cells were infected with pseudotyped HIV-1 virions carrying the firefly luciferase reporter gene. The infected cells were incubated with varying concentration of PNATAR-neamine conjugate 60 or naked PNATAR during 48 hours at 37° C. and lysed to measure firefly luciferase activity. Anti-TAR PNA-transportan conjugate (PNA-membrane-permeating peptide conjugate) known to inhibit HIV-1 replication (Kaushik, et al. (2002) supra) was used as a positive control. […] Supplementation of naked PNA of SEQ ID NO:1 in the culture medium had no influence on luciferase gene expression.
Isolation of HIV-1 Virions. The pseudotyped HIV-1 virions were isolated from the culture supernatant of 293T cells transfected with pHIV-1JR-CSF-Lucenv (-) and pVSV-G clones. The culture supernatant (500 mL) was filtered through 0.45 μm pore size membrane and centrifuged at 70,000 g for 45 minutes. […] HIV-1 virions were quantified by determining the RNA copy number in the sample using NUCLISENS® HIV-1-QT Amplication Kit (Organon Teknika, Durham, N.C.). […] The virion number estimated from the RNA copy number was in agreement with the number determined by p24 quantification (1 pg p24 per 12500 virions). […]

NC[C@H]1O[C@H](O[C@H]2[C@H](O)[C@@H](O)[C@H](N)C[C@@H]2N)[C@H](N)[C@@H](O)[C@@H]1O [neamine core, neamine]
inhibition of HIV-1 replication: did not inhibit
